How the values were obtained:
Assay in all cases: In vitro antifungal activity, microbroth dilution MIC
Assay type in all cases: cell-based
[1] = test system: Aspergillus furnigatus B. 19119; details: A furnigatus B. 19119, RPMI-1640, 35° C., 4 to 48 hours
Description: (§1) In vitro antifungal activities of the inventive antifungal compounds were evaluated using the test strains shown in Table VIII by the following microbroth dilution method which is a modified version of the procedure recommended by National Committee for Clinical Laboratory Standards(see National Committee for Clinical Laboratory Standards, 1992, Reference methods for broth dilution antifungal susceptibility testing of yeasts, Proposed standard M27-P, National Committee for clinical laboratory standards, Villanova, Pa; and National Committee for Clinical Laboratory Standards, 1995, Reference methods for broth dilution antifungal susceptibility testing of yeasts. Tentative standard M27-T, National Committee for clinical laboratory standards, Villanova, Pa).
(§2) Sabourad Dextrose Agar(Difco) was used as a culture medium, and RPMI-1640 broth(Sigma. Co. w/L-glutamine, wo/NaHCO3)(0.165 M MOPS, pH 7.0), as a dilution medium.
(§3) Each of the test strains were subcultured in Sabourad Dextrose Agar medium twice and a stain sample was taken from prominent colonies and suspended in sterile physiological saline solution in a cap tube. The turbidity of the suspension was adjusted to that of the Mcfarland 0.5 standard sample(approximately 10^6 CFU/ml). Then the suspension was diluted 500-fold with sterile RPMI-1640 liquid medium to 2×10^3 CFU/ml.
(§4) Each of the test compounds(the compounds obtained in Examples 1 to 150 and comparative compounds, i.e., fluconazole(FCZ) and itraconazole (ICZ)), was dissolved in DMSO to give a stock solution having a concentration of 4000 μg/ml and the stock solution was successively diluted to obtain test solutions having test compound concentrations of 200, 100, 50, 25, 12.5, 6.25, 3.13, 1.56, 0.78, 0.39, 0.20 and 0.10 μg/ml, respectively.
(§5) 0.1 ml portion of the test solutions were added to the wells of a sterile 96 well plate. Then, 0.1 ml portion of each of the test strain solutions were added successively to the wells and the plate was incubated at 35° C. for 4 to 48 hours.
(§6) Minimal inhibitory concentration(MIC) of each compound was defined as the concentration of the test compound where no growth of the strain could be observed.

[2] = test system: Aspergillus niger A. 16404; details: A. niger A. 16404, RPMI-1640, 35° C., 4 to 48 hours
Description: as §1, §2, §3, §4, §5, §6

[3] = test system: Candida albicans A. 10231; details: C. albicans A. 10231, RPMI-1640, 35° C., 4 to 48 hours
Description: as §1, §2, §3, §4, §5, §6

[4] = test system: Candida albicans C1-2; details: C. albicans C1-2, RPMI-1640, 35° C., 4 to 48 hours
Description: as §1, §2, §3, §4, §5, §6

[5] = test system: Candida albicans IFO. 1385; details: C. albicans IFO. 1385, RPMI-1640, 35° C., 4 to 48 hours
Description: as §1, §2, §3, §4, §5, §6

[6] = test system: Candida krusei K. 11655; details: C. krusei K. 11655, RPMI-1640, 35° C., 4 to 48 hours
Description: as §1, §2, §3, §4, §5, §6

[7] = test system: Candida parapsitosis A. 7330; details: C. parapsitosis A. 7330, RPMI-1640, 35° C., 4 to 48 hours
Description: as §1, §2, §3, §4, §5, §6

[8] = test system: Candida pseudotropicalis K. 11658; details: C. pseudotropicalis K. 11658, RPMI-1640, 35° C., 4 to 48 hours
Description: as §1, §2, §3, §4, §5, §6

[9] = test system: Candida tropicalis A. 13803; details: C. tropicalis A. 13803, RPMI-1640, 35° C., 4 to 48 hours
Description: as §1, §2, §3, §4, §5, §6

[10] = test system: Cryptococcus neoformans A. 34144; details: Cry. neoformans A. 34144, RPMI-1640, 35° C., 4 to 48 hours
Description: as §1, §2, §3, §4, §5, §6

[11] = test system: Cryptococcus neoformans B. 42419; details: Cry. neoformans B. 42419, RPMI-1640, 35° C., 4 to 48 hours
Description: as §1, §2, §3, §4, §5, §6

[12] = test system: Cryptococcus neoformans IFM. 40092; details: Cry. neoformans IFM. 40092, RPMI-1640, 35° C., 4 to 48 hours
Description: as §1, §2, §3, §4, §5, §6

[13] = test system: Torulopsis glabrata B. 16205; details: T. glabrata B. 16205, RPMI-1640, 35° C., 4 to 48 hours
Description: as §1, §2, §3, §4, §5, §6

[14] = test system: Trichophyton mentagrophytes A. 9129; details: T. mentagrophytes A. 9129, RPMI-1640, 35° C., 4 to 48 hours
Description: as §1, §2, §3, §4, §5, §6

[15] = test system: Trichophyton mentagrophytes B. 32663; details: T. mentagrophytes B. 32663, RPMI-1640, 35° C., 4 to 48 hours
Description: as §1, §2, §3, §4, §5, §6

Cc1cc(C)cc(C=C(F)OCC2COC(Cn3ccnc3)(c3ccc(F)cc3F)O2)c1 (mixture of isomers) [Ex. 41]
Minimal inhibitory concentration (MIC) [1]: 6.25 µg/mL
Minimal inhibitory concentration (MIC) [2]: 25.0 µg/mL
Minimal inhibitory concentration (MIC) [3]: 12.5 µg/mL
Minimal inhibitory concentration (MIC) [4]: 12.5 µg/mL
Minimal inhibitory concentration (MIC) [5]: 0.78 µg/mL
Minimal inhibitory concentration (MIC) [6]: 50.0 µg/mL
Minimal inhibitory concentration (MIC) [7]: 100 µg/mL
Minimal inhibitory concentration (MIC) [8]: 25.0 µg/mL
Minimal inhibitory concentration (MIC) [9]: 25.0 µg/mL
Minimal inhibitory concentration (MIC) [10]: 3.13 µg/mL
Minimal inhibitory concentration (MIC) [11]: 3.13 µg/mL
Minimal inhibitory concentration (MIC) [12]: 0.78 µg/mL
Minimal inhibitory concentration (MIC) [13]: 6.25 µg/mL
Minimal inhibitory concentration (MIC) [14]: 6.25 µg/mL
Minimal inhibitory concentration (MIC) [15]: 3.13 µg/mL

Cc1cc(C)c(C=C(F)OCC2COC(Cn3ccnc3)(c3ccc(F)cc3F)O2)cc1C (mixture of isomers) [Ex. 42]
Minimal inhibitory concentration (MIC) [1]: 12.5 µg/mL
Minimal inhibitory concentration (MIC) [2]: 100 µg/mL
Minimal inhibitory concentration (MIC) [3]: 12.5 µg/mL
Minimal inhibitory concentration (MIC) [4]: 12.5 µg/mL
Minimal inhibitory concentration (MIC) [5]: 0.78 µg/mL
Minimal inhibitory concentration (MIC) [6]: 25.0 µg/mL
Minimal inhibitory concentration (MIC) [7]: 25.0 µg/mL
Minimal inhibitory concentration (MIC) [8]: 25.0 µg/mL
Minimal inhibitory concentration (MIC) [9]: 25.0 µg/mL
Minimal inhibitory concentration (MIC) [10]: 0.78 µg/mL
Minimal inhibitory concentration (MIC) [11]: 0.78 µg/mL
Minimal inhibitory concentration (MIC) [12]: ≦0.10 μg/ml
Minimal inhibitory concentration (MIC) [13]: 6.25 µg/mL
Minimal inhibitory concentration (MIC) [14]: 6.25 µg/mL
Minimal inhibitory concentration (MIC) [15]: 1.56 µg/mL

COc1cccc(C=C(F)OCC2COC(Cn3ccnc3)(c3ccc(F)cc3F)O2)c1 (mixture of isomers) [Ex. 43]
Minimal inhibitory concentration (MIC) [1]: 12.5 µg/mL
Minimal inhibitory concentration (MIC) [2]: >100 µg/mL
Minimal inhibitory concentration (MIC) [3]: 25.0 µg/mL
Minimal inhibitory concentration (MIC) [4]: 25.0 µg/mL
Minimal inhibitory concentration (MIC) [5]: 0.78 µg/mL
Minimal inhibitory concentration (MIC) [6]: 12.5 µg/mL
Minimal inhibitory concentration (MIC) [7]: 12.5 µg/mL
Minimal inhibitory concentration (MIC) [8]: 6.25 µg/mL
Minimal inhibitory concentration (MIC) [9]: 50.0 µg/mL
Minimal inhibitory concentration (MIC) [10]: 1.56 µg/mL
Minimal inhibitory concentration (MIC) [11]: 1.56 µg/mL
Minimal inhibitory concentration (MIC) [12]: 0.39 µg/mL
Minimal inhibitory concentration (MIC) [13]: 6.25 µg/mL
Minimal inhibitory concentration (MIC) [14]: 6.25 µg/mL
Minimal inhibitory concentration (MIC) [15]: 1.56 µg/mL

CCOc1ccc(C=C(F)OCC2COC(Cn3ccnc3)(c3ccc(F)cc3F)O2)cc1 (mixture of isomers) [Ex. 44]
Minimal inhibitory concentration (MIC) [1]: 12.5 µg/mL
Minimal inhibitory concentration (MIC) [2]: >100 µg/mL
Minimal inhibitory concentration (MIC) [3]: 25.0 µg/mL
Minimal inhibitory concentration (MIC) [4]: 25.0 µg/mL
Minimal inhibitory concentration (MIC) [5]: 0.39 µg/mL
Minimal inhibitory concentration (MIC) [6]: 12.5 µg/mL
Minimal inhibitory concentration (MIC) [7]: 12.5 µg/mL
Minimal inhibitory concentration (MIC) [8]: 6.25 µg/mL
Minimal inhibitory concentration (MIC) [9]: 50.0 µg/mL
Minimal inhibitory concentration (MIC) [10]: 1.56 µg/mL
Minimal inhibitory concentration (MIC) [11]: 1.56 µg/mL
Minimal inhibitory concentration (MIC) [12]: 0.39 µg/mL
Minimal inhibitory concentration (MIC) [13]: 6.25 µg/mL
Minimal inhibitory concentration (MIC) [14]: 6.25 µg/mL
Minimal inhibitory concentration (MIC) [15]: 1.56 µg/mL

CC(C)Oc1cccc(C=C(F)OCC2COC(Cn3ccnc3)(c3ccc(F)cc3F)O2)c1 (mixture of isomers) [Ex. 45]
Minimal inhibitory concentration (MIC) [1]: 12.5 µg/mL
Minimal inhibitory concentration (MIC) [2]: 100 µg/mL
Minimal inhibitory concentration (MIC) [3]: 25.0 µg/mL
Minimal inhibitory concentration (MIC) [4]: 25.0 µg/mL
Minimal inhibitory concentration (MIC) [5]: 0.39 µg/mL
Minimal inhibitory concentration (MIC) [6]: 12.5 µg/mL
Minimal inhibitory concentration (MIC) [7]: 12.5 µg/mL
Minimal inhibitory concentration (MIC) [8]: 6.25 µg/mL
Minimal inhibitory concentration (MIC) [9]: 50.0 µg/mL
Minimal inhibitory concentration (MIC) [10]: 1.56 µg/mL
Minimal inhibitory concentration (MIC) [11]: 1.56 µg/mL
Minimal inhibitory concentration (MIC) [12]: 0.39 µg/mL
Minimal inhibitory concentration (MIC) [13]: 6.25 µg/mL
Minimal inhibitory concentration (MIC) [14]: 6.25 µg/mL
Minimal inhibitory concentration (MIC) [15]: 1.56 µg/mL

FC(=Cc1ccc(Cl)cc1)OCC1COC(Cn2ccnc2)(c2ccc(F)cc2F)O1 (mixture of isomers) [Ex. 47]
Minimal inhibitory concentration (MIC) [1]: 1.56 µg/mL
Minimal inhibitory concentration (MIC) [2]: 6.25 µg/mL
Minimal inhibitory concentration (MIC) [3]: 12.5 µg/mL
Minimal inhibitory concentration (MIC) [4]: 12.5 µg/mL
Minimal inhibitory concentration (MIC) [5]: 0.20 µg/mL
Minimal inhibitory concentration (MIC) [6]: 12.5 µg/mL
Minimal inhibitory concentration (MIC) [7]: 6.25 µg/mL
Minimal inhibitory concentration (MIC) [8]: 6.25 µg/mL
Minimal inhibitory concentration (MIC) [9]: 25.0 µg/mL
Minimal inhibitory concentration (MIC) [10]: 0.78 µg/mL
Minimal inhibitory concentration (MIC) [11]: 0.78 µg/mL
Minimal inhibitory concentration (MIC) [12]: ≦0.10 μg/ml
Minimal inhibitory concentration (MIC) [13]: 6.25 µg/mL
Minimal inhibitory concentration (MIC) [14]: 0.39 µg/mL
Minimal inhibitory concentration (MIC) [15]: ≦0.10 μg/ml

FC(=Cc1cccc(F)c1)OCC1COC(Cn2ccnc2)(c2ccc(F)cc2F)O1 (mixture of isomers) [Ex. 48]
Minimal inhibitory concentration (MIC) [1]: 1.56 µg/mL
Minimal inhibitory concentration (MIC) [2]: 6.25 µg/mL
Minimal inhibitory concentration (MIC) [3]: 25.0 µg/mL
Minimal inhibitory concentration (MIC) [4]: 25.0 µg/mL
Minimal inhibitory concentration (MIC) [5]: 0.20 µg/mL
Minimal inhibitory concentration (MIC) [6]: 25.0 µg/mL
Minimal inhibitory concentration (MIC) [7]: 25.0 µg/mL
Minimal inhibitory concentration (MIC) [8]: 12.5 µg/mL
Minimal inhibitory concentration (MIC) [9]: 50.0 µg/mL
Minimal inhibitory concentration (MIC) [10]: 0.78 µg/mL
Minimal inhibitory concentration (MIC) [11]: 0.78 µg/mL
Minimal inhibitory concentration (MIC) [12]: ≦0.10 μg/ml
Minimal inhibitory concentration (MIC) [13]: 12.5 µg/mL
Minimal inhibitory concentration (MIC) [14]: 0.39 µg/mL
Minimal inhibitory concentration (MIC) [15]: ≦0.10 μg/ml

FC(=Cc1ccc(F)cc1)OCC1COC(Cn2ccnc2)(c2ccc(F)cc2F)O1 (mixture of isomers) [Ex. 49]
Minimal inhibitory concentration (MIC) [1]: 1.56 µg/mL
Minimal inhibitory concentration (MIC) [2]: 6.25 µg/mL
Minimal inhibitory concentration (MIC) [3]: 25.0 µg/mL
Minimal inhibitory concentration (MIC) [4]: 25.0 µg/mL
Minimal inhibitory concentration (MIC) [5]: 0.20 µg/mL
Minimal inhibitory concentration (MIC) [6]: 25.0 µg/mL
Minimal inhibitory concentration (MIC) [7]: 25.0 µg/mL
Minimal inhibitory concentration (MIC) [8]: 12.5 µg/mL
Minimal inhibitory concentration (MIC) [9]: 50.0 µg/mL
Minimal inhibitory concentration (MIC) [10]: 0.78 µg/mL
Minimal inhibitory concentration (MIC) [11]: 0.78 µg/mL
Minimal inhibitory concentration (MIC) [12]: ≦0.10 μg/ml
Minimal inhibitory concentration (MIC) [13]: 12.5 µg/mL
Minimal inhibitory concentration (MIC) [14]: 0.39 µg/mL
Minimal inhibitory concentration (MIC) [15]: ≦0.10 μg/ml

From patent publication US6376497B1, “Antifungal azole derivatives having a fluorinated vinyl group and process for preparing same” (Korea Research Institute of Chemical Technology, priority 1999, dated 2002)
